Experimental data taken from patent US20060069132A1, “Azolecarboxamide herbicides” (priority 2004, published 2006).

Columns and labels:
giant foxtail [1] = test: Test B pre-/postemergence herbicide test; format: in vivo, Setaria faberi
In short: (§1)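 Evaluation is visual, comparing treated with control plants on a scale where 0 means no effect and 100 means full control. Treatments were preemergence, or postemergence on seedlings 2–18 cm tall, and held 13–15 days in the greenhouse.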

Surinam grass = test: Test B pre-/postemergence herbicide test; format: in vivo, Urochloa decumbens
In short: as §1

rice [2] = test: Test B flooded paddy test; format: in vivo, Oryza sativa; conditions: 1000 g ai/ha, visual rating, scale 0 to 100 (0 no effect, 100 complete control), 13 to 15 days
In short: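 Each value is a visual 0–100 response rating taken against controls 13 to 15 days after treatment in the greenhouse. Plants received formulated chemical postemergence at the 1- to 4-leaf stage or, in flooded paddy, at the 2-leaf stage.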

barnyardgrass [3] = test: Test B flooded paddy test; format: in vivo, Echinochloa crus-galli; conditions: 1000 g ai/ha, visual rating, scale 0 to 100 (0 no effect, 100 complete control), 13 to 15 days
In short: (§2)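 Visual control ratings, 0–100 versus untreated controls, taken after 13 to 15 days in the greenhouse. Blackgrass received a postemergence spray at the 1- to 4-leaf stage (2–18 cm); ducksalad, umbrella sedge and barnyardgrass were flooded-paddy treated at 2 leaves.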

velvetleaf [4] = test: Test A pre-/postemergence herbicide test; format: in vivo, Abutilon theophrasti
In short: (§3)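 Plants are held in greenhouse about ten days after treatment, then compared with untreated controls and scored 0 (no effect) to 100 (complete control). Preemergence dosing is a directed soil spray on sown sandy loam; postemergence dosing is spray to runoff at 2–10 cm height.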

redroot pigweed = test: Test A pre-/postemergence herbicide test; format: in vivo, Amaranthus retroflexus
In short: as §3

barnyardgrass [5] = test: Test B pre-/postemergence herbicide test; format: in vivo, Echinochloa crus-galli
In short: (§4)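 Response was scored visually 13 to 15 days after treatment against untreated greenhouse controls, 0 meaning no effect and 100 complete control. Formulations (solvent mixture plus surfactant) went onto soil after planting, onto foliage of 1- to 4-leaf plants, and onto 2-leaf plants in a flooded paddy set including rice and barnyardgrass.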

wild oat = test: Test B postemergence herbicide test; format: in vivo, Avena fatua; conditions: scale 0 (no effect) to 100 (complete control)
In short: (§5)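 Formulated test chemicals went onto postemergence plants measuring 2 to 18 cm, at one to four leaves. For the paddy assay, species had reached two leaves. Scoring took place 13–15 days later by eye, relative to untreated plants, using 0 for no effect up to 100 for full control.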

blackgrass = test: Test B postemergence herbicide test; format: in vivo, Alopecurus myosuroides; conditions: scale 0 (no effect) to 100 (complete control)
In short: as §2

pigweed = test: Test B pre-/postemergence herbicide test; format: in vivo, Amaranthus retroflexus
In short: as §1

large crabgrass [6] = test: Test B pre-/postemergence herbicide test; format: in vivo, Digitaria sanguinalis
In short: as §1

[7] = test system: small flower umbrella sedge; test: Test B flooded paddy test; format: in vivo, Cyperus difformis; conditions: 1000 g ai/ha, visual rating, scale 0 to 100 (0 no effect, 100 complete control), 13 to 15 days
In short: as §2

barnyardgrass [8] = test: Test A pre-/postemergence herbicide test; format: in vivo, Echinochloa crus-galli
In short: as §3

ducksalad = test: Test B flooded paddy test; format: in vivo, Heteranthera limosa; conditions: 1000 g ai/ha, visual rating, scale 0 to 100 (0 no effect, 100 complete control), 13 to 15 days
In short: as §2

morningglory [9] = test: Test B pre-/postemergence herbicide test; format: in vivo, Ipomoea coccinea
In short: as §4

lambsquarters = test: Test B pre-/postemergence herbicide test; format: in vivo, Chenopodium album
In short: as §1

cocklebur = test: Test B pre-/postemergence herbicide test; format: in vivo, Xanthium strumarium
In short: as §4

rice [10] = test: Test B pre-/postemergence herbicide test; format: in vivo, Oryza sativa; conditions: preemergence
In short: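 Plants compared with untreated controls 13–15 days post-treatment and given a visual 0–100 injury score. Applications: preemergence to seeds; postemergence at 1- to 4-leaf (2–18 cm); paddy species flooded, 2-leaf stage. Vehicle non-phytotoxic, surfactant included.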

morningglory [11] = test: Test A pre-/postemergence herbicide test; format: in vivo, Ipomoea spp.
In short: as §3

wheat = test: Test B postemergence herbicide test; format: in vivo, Triticum aestivum; set-up: key to Wheat plant response rating: 0 = no effect, 100 = complete control; conditions: scale 0 (no effect) to 100 (complete control)
In short: as §5

large crabgrass [12] = test: Test A pre-/postemergence herbicide test; format: in vivo, Digitaria sanguinalis
In short: as §3

corn = test: Test B pre-/postemergence herbicide test; format: in vivo, Zea mays
In short: as §1

giant foxtail [13] = test: Test A pre-/postemergence herbicide test; format: in vivo, Setaria faberi
In short: as §3

velvetleaf [14] = test: Test B pre-/postemergence herbicide test; format: in vivo, Abutilon theophrasti
In short: as §1

[15] = 500 g ai/ha, visual rating 0-100, 0 no effect, 100 complete control, preemergence
[16] = Postemergence, 500 g ai/ha, visual rating after 13 to 15 days, scale 0 (no effect) to 100 (complete control)
[17] = postemergence, 125 g ai/ha, visual rating, scale 0 (no effect) to 100 (complete control)
[18] = preemergence, 125 g ai/ha, 0 to 100 scale, 0 is no effect, 100 is complete control
[19] = Postemergence, 500 g ai/ha, 0 to 100 scale, 0 no effect, 100 complete control
[20] = Postemergence, 2000 g ai/ha, 0 to 100 scale, 0 no effect, 100 complete control
[21] = Preemergence, 500 g ai/ha, visual rating, 0 to 100 scale (0 no effect, 100 complete control)
[22] = Preemergence, 2000 g ai/ha, visual rating, 0 to 100 scale (0 no effect, 100 complete control)
[23] = Postemergence, 500 g ai/ha, visual rating after 13 to 15 days
[24] = postemergence, 125 g ai/ha, visual rating

CCOC(=O)c1cccc(NC(=O)c2cc(C(C)(C)C)nn2CC)c1OC [Compound 97]
10: Plant response rating, Velvetleaf (velvetleaf [4]; [20]) | Plant response rating, Barnyardgrass (barnyardgrass [8]; [20]) | Crabgrass, Large plant response rating (large crabgrass [12]; [19]) | Plant response rating, Crabgrass, Large (large crabgrass [12]; [20]) | Plant response rating, Foxtail, Giant (giant foxtail [13]; [20])
70: Sedge, Umbrella plant response rating [7] | Plant response rating, Lambsquarters (lambsquarters; [16]) | Plant response rating, Cocklebur (cocklebur; [16])
0: Plant response rating, Foxtail, Giant (giant foxtail [1]; [15]) | Plant response rating, Foxtail, Giant (giant foxtail [1]; [16]) | Foxtail, Giant plant response rating (giant foxtail [1]; [17]) | Plant response rating, Foxtail, Giant (giant foxtail [1]; [18]) | Plant response rating, Surinam Grass (Surinam grass; [15]) | Plant response rating, Surinam Grass (Surinam grass; [16]) | Surinam Grass plant response rating (Surinam grass; [17]) | Plant response rating, Surinam Grass (Surinam grass; [18]) | Rice plant response rating (rice [2]) | Barnyardgrass plant response rating (barnyardgrass [3]) | Velvetleaf plant response rating (velvetleaf [4]; [21]) | Velvetleaf plant response rating (velvetleaf [4]; [22]) | Pigweed plant response rating (redroot pigweed; [19]) | Pigweed plant response rating (redroot pigweed; [21]) | Pigweed plant response rating (redroot pigweed; [22]) | Plant response rating, Barnyardgrass (barnyardgrass [5]; [15]) | Plant response rating, Barnyardgrass (barnyardgrass [5]; [16]) | Barnyardgrass plant response rating (barnyardgrass [5]; [17]) | Plant response rating, Barnyardgrass (barnyardgrass [5]; [18]) | Plant response rating, Oat, Wild (wild oat; [23]) | Oat, Wild plant response rating (wild oat; [24]) | Plant response rating, Blackgrass (blackgrass; [23]) | Blackgrass plant response rating (blackgrass; [24]) | Plant response rating, Pigweed (pigweed; [15]) | Plant response rating, Pigweed (pigweed; [16]) | Pigweed plant response rating (pigweed; [17]) | Plant response rating, Pigweed (pigweed; [18]) | Plant response rating, Crabgrass, Large (large crabgrass [6]; [15]) | Plant response rating, Crabgrass, Large (large crabgrass [6]; [16]) | Crabgrass, Large plant response rating (large crabgrass [6]; [17]) | Plant response rating, Crabgrass, Large (large crabgrass [6]; [18]) | Barnyardgrass plant response rating (barnyardgrass [8]; [21]) | Barnyardgrass plant response rating (barnyardgrass [8]; [22]) | Plant response rating, Morningglory (morningglory [9]; [15]) | Plant response rating, Morningglory (morningglory [9]; [16]) | Morningglory plant response rating (morningglory [9]; [17]) | Plant response rating, Morningglory (morningglory [9]; [18]) | Plant response rating, Lambsquarters (lambsquarters; [15]) | Plant response rating, Lambsquarters (lambsquarters; [18]) | Plant response rating, Cocklebur (cocklebur; [15]) | Cocklebur plant response rating (cocklebur; [17]) | Plant response rating, Cocklebur (cocklebur; [18]) | Plant response rating, Rice (rice [10]; 500 g ai/ha, visual rating 0-100, 0 no effect, 100 complete control) | Plant response rating, Rice (rice [10]; 125 g ai/ha, 0 to 100 scale, 0 is no effect, 100 is complete control) | Morningglory plant response rating (morningglory [11]; [19]) | Plant response rating, Morningglory (morningglory [11]; [20]) | Morningglory plant response rating (morningglory [11]; [21]) | Morningglory plant response rating (morningglory [11]; [22]) | Plant response rating, Wheat (wheat; [23]) | Wheat plant response rating (wheat; [24]) | Crabgrass, Large plant response rating (large crabgrass [12]; [21]) | Crabgrass, Large plant response rating (large crabgrass [12]; [22]) | Plant response rating, Corn (corn; [15]) | Plant response rating, Corn (corn; [16]) | Corn plant response rating (corn; [17]) | Plant response rating, Corn (corn; [18]) | Foxtail, Giant plant response rating (giant foxtail [13]; [21]) | Foxtail, Giant plant response rating (giant foxtail [13]; [22]) | Plant response rating, Velvetleaf (velvetleaf [14]; [15]) | Velvetleaf plant response rating (velvetleaf [14]; [17]) | Plant response rating, Velvetleaf (velvetleaf [14]; [18])
60: Plant response rating, Velvetleaf (velvetleaf [14]; [16])
5: Velvetleaf plant response rating (velvetleaf [4]; [19]) | Barnyardgrass plant response rating (barnyardgrass [8]; [19]) | Foxtail, Giant plant response rating (giant foxtail [13]; [19])
50: Ducksalad plant response rating (ducksalad) | Lambsquarters plant response rating (lambsquarters; [17])
25: Plant response rating, Pigweed (redroot pigweed; [20])
